Measurements taken from patent US10563263B2, “Genetic polymorphisms associated with statin response and cardiovascular diseases, methods of detection and uses thereof” (CELERA CORPORATION, priority 2010, dated 2020).

Test system: stroke or transient ischemic attack (TIA)
Test: CARE: stroke (including TIA) statin response by SNP genotype, hazard ratio pravastatin vs placebo (Tables 20-21)
Type: in vivo, human
Conditions: for EVENTS_RESP (total number of stroke or TIA events): CARE pravastatin arm; for HR_RESP (hazard ratio pravastatin vs placebo, stroke) / HR_RESP (hazard ratio, pravastatin-treated vs placebo-treated): CARE; for HR_RESP (hazard ratio pravastatin vs placebo, stroke): ref = placebo; for HR_RESP (hazard ratio, pravastatin-treated vs placebo-treated): stroke or TIA, pravastatin 40 mg/day
Description: Tables 20-21 provides SNPs associated with stroke risk and/or stroke statin response (reduction in stroke risk by statin treatment) in the CARE sample set. Consistent with the CARE trial, the stroke endpoint in the analysis for which the results are provided in Tables 20-21 included stroke as well as transient ischemic attack (TIA).
In Tables 20-22, certain columns are labeled “RESP”, “PLACEBO, OR “ALL”. “RESP” is for statin response as measured by comparing risk (risk for stroke, including TIA, in Tables 20-21, and risk for CHD, specifically recurrent MI, in Table 22) in the pravastatin-treated group with risk in the placebo-treated group, “PLACEBO” is the placebo-treated group, and “ALL” is the combination of the placebo-treated group and the pravastatin-treated group. “RESP” is the analysis to assess statin response in the indicated genotype group.
“EVENTS” indicates the total number of events (stroke or TIA for Tables 20-21, and recurrent MI for Table 22) in individuals with the indicated genotype.
“HR” indicates the hazard ratio.
CARE was a secondary prevention trial and WOSCOPS was a primary prevention trial.
Table 20 provides SNPs associated with stroke risk and/or stroke statin response in the CARE sample set. For example, SNPs rs10757278 and rs1333049 at chromosomal location 9p21 were associated with a reduction of stroke events by statin treatment in CARE, particularly for heterozygotes (see Table 20). Furthermore, SNPs rs12425791 and rs11833579 at chromosomal location 12p13 near the NINJ2 gene were associated with stroke risk in the placebo arm of CARE (see Table 20). […] Consistent with the CARE trial, the stroke endpoint in the analysis for which the results are provided in Tables 20-21 included stroke as well as transient ischemic attack (TIA).
Fine-mapping at the chromosome 12p13 locus was carried out by selecting 77 tagging SNPs from a 400 kb region of the chromosome 12p13 locus which covered the NINJ2 gene and other genes, genotyping these 77 SNPs, and further imputing the genotypes of approximately 250 additional SNPs in this region, for individuals in the CARE study. Analyzing these fine-mapping SNPs for association with stroke risk in the placebo arm of CARE and for stroke statin response in CARE identified SNP rs873134 in the B4GALNT3 gene in the chromosome 12p13 region near NINJ2 (see Table 21).

Structure (SMILES): CC[C@H](C)C(=O)O[C@H]1C[C@H](O)C=C2C=C[C@H](C)[C@H](CC[C@@H](O)C[C@@H](O)CC(=O)O)[C@H]21 [Pravastatin, pravastatin]
- EVENTS_RESP (total number of stroke or TIA events) (rs873134 genotype CC, MODE GEN, of 354 individuals): 27
- EVENTS_RESP (total number of stroke or TIA events) (rs873134 genotype CT + CC, MODE DOM, of 1034 individuals): 51
- EVENTS_RESP (total number of stroke or TIA events) (rs873134 genotype CT + TT, MODE REC, of 1046 individuals): 40
- EVENTS_RESP (total number of stroke or TIA events) (rs873134 genotype CT, MODE GEN, of 680 individuals): 24
- EVENTS_RESP (total number of stroke or TIA events) (rs873134 genotype TT, MODE GEN, of 366 individuals): 16
- HR_RESP (hazard ratio pravastatin vs placebo, stroke) (rs1333049 (hCV1754666, 9p21), MODE DOM, genotype GC + GG): 0.63
- HR_RESP (hazard ratio pravastatin vs placebo, stroke) (rs1333049 (hCV1754666, 9p21), MODE GEN, genotype CC): 1.11
- HR_RESP (hazard ratio pravastatin vs placebo, stroke) (rs1333049 (hCV1754666, 9p21), MODE GEN, genotype GC): 0.54
- HR_RESP (hazard ratio pravastatin vs placebo, stroke) (rs1333049 (hCV1754666, 9p21), MODE GEN, genotype GG): 0.96
- HR_RESP (hazard ratio pravastatin vs placebo, stroke) (rs1333049 (hCV1754666, 9p21), MODE REC, genotype GC + CC): 0.7
- HR_RESP (hazard ratio pravastatin vs placebo, stroke) (rs10757278 (hCV11841860, 9p21), MODE DOM, genotype GA + GG): 0.7
- HR_RESP (hazard ratio pravastatin vs placebo, stroke) (rs10757278 (hCV11841860, 9p21), MODE GEN, genotype AA): 0.9
- HR_RESP (hazard ratio pravastatin vs placebo, stroke) (rs10757278 (hCV11841860, 9p21), MODE GEN, genotype GA): 0.54
- HR_RESP (hazard ratio pravastatin vs placebo, stroke) (rs10757278 (hCV11841860, 9p21), MODE GEN, genotype GG): 1.08
- HR_RESP (hazard ratio pravastatin vs placebo, stroke) (rs10757278 (hCV11841860, 9p21), MODE REC, genotype GA + AA): 0.62
- HR_RESP (hazard ratio pravastatin vs placebo, stroke) (rs11833579 (hCV1665834, 12p13), MODE DOM, genotype AG + AA): 0.64
- HR_RESP (hazard ratio pravastatin vs placebo, stroke) (rs11833579 (hCV1665834, 12p13), MODE GEN, genotype AA): 0.26
- HR_RESP (hazard ratio pravastatin vs placebo, stroke) (rs11833579 (hCV1665834, 12p13), MODE GEN, genotype AG): 0.75
- HR_RESP (hazard ratio pravastatin vs placebo, stroke) (rs11833579 (hCV1665834, 12p13), MODE GEN, genotype GG): 0.86
- HR_RESP (hazard ratio pravastatin vs placebo, stroke) (rs11833579 (hCV1665834, 12p13), MODE REC, genotype AG + GG): 0.81
- HR_RESP (hazard ratio pravastatin vs placebo, stroke) (rs12425791 (hCV12094896, 12p13), MODE DOM, genotype AG + AA): 0.52
- HR_RESP (hazard ratio pravastatin vs placebo, stroke) (rs12425791 (hCV12094896, 12p13), MODE GEN, genotype AA): 0.28
- HR_RESP (hazard ratio pravastatin vs placebo, stroke) (rs12425791 (hCV12094896, 12p13), MODE GEN, genotype AG): 0.56
- HR_RESP (hazard ratio pravastatin vs placebo, stroke) (rs12425791 (hCV12094896, 12p13), MODE GEN, genotype GG): 0.95
- HR_RESP (hazard ratio pravastatin vs placebo, stroke) (rs12425791 (hCV12094896, 12p13), MODE REC, genotype AG + GG): 0.78
- HR_RESP (hazard ratio, pravastatin-treated vs placebo-treated) (rs873134 (hCV2652047) genotype CC, MODE GEN): 2.01
- HR_RESP (hazard ratio, pravastatin-treated vs placebo-treated) (rs873134 (hCV2652047) genotype CT + CC, MODE DOM): 0.83
- HR_RESP (hazard ratio, pravastatin-treated vs placebo-treated) (rs873134 (hCV2652047) genotype CT + TT, MODE REC): 0.52
- HR_RESP (hazard ratio, pravastatin-treated vs placebo-treated) (rs873134 (hCV2652047) genotype CT, MODE GEN): 0.5
- HR_RESP (hazard ratio, pravastatin-treated vs placebo-treated) (rs873134 (hCV2652047) genotype TT, MODE GEN): 0.54
